Earlier results in patent publication US20200353057A1, “REDUCING IMMUNOGENICITY TO PEGLOTICASE” (Horizon Pharma Rheumatology LLC, priority 2019, published 2020).
Read-outs that look alike come from different tables or passages of the source. One block for each molecule: values may come before it.

Tests used:
[1] = for Detectable in urine: after 8 hours; for Bound to serum proteins: in vivo
[2] = tested on: renal transplant and RA patients
[3] = tested on: patients treated with allopurinol; conditions: human, in vivo
[4] = tested on: patients with refractory chronic gout
[5] = tested on: patients with refractory chronic gout; conditions: Phase 2 program
[6] = tested on: subjects with refractory gout; conditions: doses of 4 to 12 mg, within 24 to 72 hours, from 11.1±0.6 mg/dL
[7] = diluted in infusion bags
[8] = tested on: organ transplant recipients; conditions: in vivo
[9] = tested on: patients with lupus nephritis; conditions: in vivo

Patients who develop allergic reactions [3]: Approximately 2%
Patients with severe hypersensitivity syndrome [3]: about 0.4%
Molecule: Oc1ncnc2[nH]ncc12 [allopurinol]

Bound to serum proteins [1]: 30%
Molecule: Sc1ncnc2nc[nH]c12 [mercaptopurine, 6-mercaptopurine]
Detectable in urine [1]: no mycophenolate mofetil or mercaptopurine is detectable in urine

Second part, the molecule before the results:

Molecule: COc1c(C)c2c(c(O)c1C/C=C(\C)CCC(=O)OCCN1CCOCC1)C(=O)OC2 [Mycophenolate mofetil, 2-morpholinoethyl (E)-6-(1,3-dihydro4-hydroxy-6-methoxy-7-methyl-3-oxo-5-isobenzofuranyl)-4-methyl-4-hexenoate]
Detectable in urine [1]: no mycophenolate mofetil or mercaptopurine is detectable in urine
Bound to serum proteins [1]: 30%
Absorption following oral administration ([1]; oral): well absorbed
Increased susceptibility to infection ([2]; RA): < 1%
Leukopenia ([2]; RA): 28%
Nausea and vomiting ([2]; RA): 12%
Increased susceptibility to infection ([2]; renal transplant): 20%
Leukopenia ([2]; renal transplant): > 50%
Neoplasia (lymphoma) ([2]; renal transplant): 0.5%
Neoplasia (other than lymphoma) ([2]; renal transplant): 3%
Teratogenic effects (rats): teratogenic effects
Teratogenic effects (rabbits): teratogenic effects

Molecule: pegloticase
Patients maintaining a response, antibody titer exceeding 1:2430 at any time ([4]; 7 of 65 patients, another study): 10.8%
Patients with IRs in whom loss of response (return to SUA ≥6 mg/dL) preceded the first IR ([4]; 20/21): 95%
Patients with titers exceeding 1:2430 who developed IRs ([4]; 31 of 52): 60%
Patients maintaining a response, never had an antibody titer above 1:2430 ([4]; 58/65, another study): 89.2%
Patients who developed high titer anti-pegloticase antibodies and subsequently lost response ([4]; 69 of 169 patients, one study): 41%
Occurrence of most common adverse reactions (gout flares, infusion reactions, nausea, contusion or ecchymosis, nasopharyngitis, constipation, chest pain, anaphylaxis, vomiting) ([4]; KXX-treated patients): ≥ 5%
Occurrence of ecchymoses, sore throat, constipation, chest pain, and vomiting ([4]; patients treated with pegloticase): at least 5%
Incidence of infusion-related reactions ([4]; pooled Phase 3, 8 mg biweekly dosing): 26%
Incidence of infusion-related reactions ([4]; pooled Phase 3, 8 mg every-4-week dosing regimen): 40%
Anaphylaxis frequency ([4]; pre-marketing controlled clinical trials): 6.5%
Infusion reactions reported ([4]; pre-marketing controlled clinical trials, 8 mg every 2 weeks): 26%
Participants with high antibody titers who maintained a response (serum urate <6 mg/dL) ([4]; second study): 1 of 52
Participants with high titers who developed IR ([4]; second study): 60%
Dose-response plateau dose [5]: 12 mg
Minimally effective dose [5]: 4 mg
Safe and optimally effective dose [5]: 8 mg
pUAc (plasma urate concentration) after dosing, mean±SD [6]: 1.0±0.5 mg/dL
Stability of diluted solution ([7]; 2° C. to 8° C.): 4 h
Stability of diluted solution ([7]; room temperature (20° C. to 25° C.)): 4 h
Organ transplant recipients with a sustained high titer Ab response to pegloticase [8]: one out of seven

Molecule: rituximab: biologic arm of a lupus nephritis RCT on top of MMF and glucocorticoids
Rate of serious infections [9]: 16.6 /100 patient-years
